In ChEMBL document CHEMBL1124217, “2,4-Diamino-5-benzylpyrimidines and analogues as antibacterial agents. 9. Lipophilic trimethoprim analogues as antigonococcal agents” (J Med Chem, 1988) one finds MIC ratio, MIC and IC50 data, which are given here for 21 compounds.

SMILES strings stand for the structures. Values after ≈ are worked out from the molar mass of the structure shown. Where only a bound is given, the exact number is not on record here.

In test [1] the test system is Escherichia coli. The test is described as follows: Inhibition of growth of Escherichia coli (CN314) measured as MIC compound/MIC Trimethoprim. It is filed as functional.
For test [2], the system named is Klebsiella aerogenes. The test is described as follows: Inhibition of growth of Enterobacter aerogenes (2200/186) measured as MIC(compound/MIC Trimethoprim. It is filed as functional.
In test [3] the test system is Klebsiella pneumoniae. The test is described as follows: Inhibition of growth of Klebsiella pneumoniae (CN3632) measured as MIC compound/MIC Trimethoprim. It is filed as functional.
Test [4] concerns Proteus vulgaris. The experiment in a line: Inhibition of growth of Proteus vulgaris (CN329) measured as MIC compound/MIC Trimethoprim. It is filed as functional.
Test [5] relates to Staphylococcus aureus. The experiment in a line: Inhibition of growth of Staphylococcus aureus (CN491) measured as MIC compound/MIC Trimethoprim. It is filed as functional.
The subject of test [6] is Escherichia coli. The test is described as follows: Inhibition of growth of Escherichia coli (CN314) was measured.
Test [7] deals with Klebsiella pneumoniae. The experiment in a line: Inhibition of growth of Klebsiella pneumoniae (CN3632) was measured.
Test [8] has as its system Mycolicibacterium smegmatis. The test is described as follows: Inhibition of growth of Mycobacterium smegmatis (S3254) was measured.
In test [9] the test system is Neisseria gonorrhoeae. The experiment in a line: Inhibition of growth of Neisseria gonorrhoeae. It is filed as functional.
The test system of test [10] is Proteus vulgaris. The test is described as follows: Inhibition of growth of Proteus vulgaris (CN329) was measured.
For test [11], the system named is Serratia marcescens. The experiment in a line: Inhibition of growth of Serratia marcescens (CN2398) was measured.
Test [12] has as its system Shigella flexneri. The test is described as follows: Inhibition of growth of Shigella flexneri (CN6007) was measured.
The test system of test [13] is Salmonella.
Test [14] concerns Staphylococcus aureus. The experiment in a line: Inhibition of growth of Staphylococcus aureus (CN491) was measured.
The subject of test [15] is Klebsiella aerogenes. The test is described as follows: microbe, parasite or virus in culture.
Description: Inhibition of growth of Enterobacter aerogenes (2200/186) was measured
The subject of test [16] is Vibrio cholerae. The test is described as follows: microbe, parasite or virus in culture. As to conditions: ATCC 14035.
Description: Inhibition of growth of Vibrio cholera (ATCC 14035) was measured
Test [17] relates to Shigella flexneri. The test is described as follows: Inhibition of growth of Shigella flexneri (CN6007) measured as MIC compound/MIC Trimethoprim. It is filed as functional.
The subject of test [18] is Vibrio cholerae. The test is described as follows: Inhibition of growth of Vibrio cholera (ATCC 14035) measured as MIC compound/MIC Trimethoprim. It is filed as functional.
Test [19] concerns the target T1, Dihydrofolate reductase (Rattus norvegicus, UniProt Q920D2).
T1 sequence (Q920D2 whole entry): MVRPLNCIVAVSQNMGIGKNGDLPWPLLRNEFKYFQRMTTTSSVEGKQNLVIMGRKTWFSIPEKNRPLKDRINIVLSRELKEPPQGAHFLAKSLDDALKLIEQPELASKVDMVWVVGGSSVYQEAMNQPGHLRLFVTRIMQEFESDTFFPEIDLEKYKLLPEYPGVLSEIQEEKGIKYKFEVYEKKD
The test is described as follows: Inhibition of Rat liver Dihydrofolate reductase(DHFR). The settings on record: read-out: I50.

With `Cc1cc(Cc2cnc(N)nc2N)cc(C)c1O`, the MIC ratio is 10 in [1]; 1 in test [2]; 3 in [3]; 3 in [4]; 10 in test [5].

As to `COc1cc(Cc2cnc(N)nc2N)cc(OC)c1OC` [TRIMETHOPRIM], the MIC came out at 1 µg/mL (≈ 3.44 µM) in [6]; 1 µg/mL (≈ 3.44 µM) in test [7]; 1 µg/mL (≈ 3.44 µM) in test [8]; 240 µM (≈ 69.7 µg/mL) in test [9]; 1 µg/mL (≈ 3.44 µM) in [10]; 1 µg/mL (≈ 3.44 µM) in test [11]. Moreover, the MIC in [12], in test [13], in test [14], in [15] and in [16] was 1 µg/mL (≈ 3.44 µM) in each case.

Turning to `CCCc1cc(Cc2cnc(N)nc2N)cc(CCC)c1O`, the MIC ratio came out at 10 in test [1]; 30 in [2]; 30 in test [3]; 30 in test [4]; 10 in test [17]; 0.3 in test [5]. Also, in test [18], the MIC was 1 µg/mL (≈ 3.33 µM).

The compound `CCCc1cc(Cc2cnc(N)nc2N)cc(OC)c1OC` yielded an MIC in test [9] of 54 µM (≈ 16.3 µg/mL).

For `COc1c(C)cc(Cc2cnc(N)nc2N)cc1C`, the MIC ratio in test [1] worked out at 1000; in test [2] it was 1000; in test [3], 300; in test [4], 300; in [5], 100. The MIC in [9] amounted to 200 µM (≈ 51.7 µg/mL).

On to `CCc1cc(Cc2cnc(N)nc2N)cc(CC)c1O`, for which the MIC ratio in test [1] worked out at 3; in test [2], 10; in [3], 10; in test [4], 10; in [17], 10; in [5], 3. In addition, the MIC in [18] is 1 µg/mL (≈ 3.67 µM).

On to `COc1c(C(C)C)cc(Cc2cnc(N)nc2N)cc1C(C)C`, for which the MIC ratio in [1] was 3000; in test [2], over 1000; in test [3], over 1000; in test [4], over 1000; in test [5], 30.

`C=CCc1cc(Cc2cnc(N)nc2N)cc(CCC)c1O`: the IC50 in [19] was found to be 3.63 µM.

For the compound `CCCc1cc(Cc2cnc(N)nc2N)cc(CCC)c1OC`, the MIC ratio in [1] amounted to 30; in test [2] it was 100; in test [3] it was 30; in test [4], 30; in test [17] it was 100; in test [5], 1. The compound also yielded an MIC in [18] of 10 µg/mL (≈ 31.8 µM).

Regarding `Cc1cc(Cc2cnc(N)nc2N)cc(C(C)(C)C)c1O`, the MIC ratio stood at 100 in test [1]; 100 in test [2]; 100 in test [3]; 100 in test [4]; 30 in test [17]; 3 in test [5].

`CCCc1cc(Cc2cnc(N)nc2N)cc(CC)c1O`: the MIC ratio in test [1] turned out to be 10; in test [2], 10; in test [3], 3; in test [4], 3; in test [17], 3; in test [5] it was 0.3. For the same compound, the values for the MIC in [9] and in [18] were 9 µM (≈ 2.58 µg/mL) and 1 µg/mL (≈ 3.49 µM), respectively.

In the case of `CCCc1cc(Cc2cnc(N)nc2N)cc(CC)c1OC`, in test [19], the IC50 was 30 µM. Besides, the MIC ratio in test [1] is 30; in test [2], 100; in test [3], 30; in [4] it was 30; in test [17], 30; in test [5], 0.3. Besides, the MIC in test [9] is 17.5 µM (≈ 5.26 µg/mL); in test [18], 10 µg/mL (≈ 33.3 µM).

For the compound `COc1c(C(C)(C)C)cc(Cc2cnc(N)nc2N)cc1C(C)(C)C`, the MIC ratio was 10000 in test [1]; over 1000 in test [2]; over 1000 in test [3]; over 1000 in test [4]; 30 in test [5]. Moreover, the MIC in test [9] was found to be 13 µM (≈ 4.45 µg/mL).

For the compound `CCc1cc(Cc2cnc(N)nc2N)cc(CC)c1OC`, the MIC ratio stood at 3 in [1]; 10 in test [2]; 10 in test [3]; 30 in [4]; 3 in test [17]; 0.3 in test [5].

Take `CC(C)(C)c1cc(Cc2cnc(N)nc2N)cc(C(C)(C)C)c1O`: the MIC ratio in test [1] was over 1000; in test [2], over 1000; in test [3], over 1000; in [4] it was over 1000; in test [17], over 1000; in [5], 30. This compound also yielded an MIC in test [9] of 35 µM (≈ 11.5 µg/mL).

In [9], `C/C=C/c1cc(Cc2cnc(N)nc2N)cc(OC)c1OC` returned an MIC of 110 µM (≈ 33 µg/mL).

`CCOc1cc(Cc2cnc(N)nc2N)cc(OC)c1OC` gave an MIC in test [9] of 180 µM (≈ 54.8 µg/mL).

As for `C=CCc1cc(Cc2cnc(N)nc2N)cc(OC)c1OC`, the MIC in test [9] was 110 µM (≈ 33 µg/mL).

`CCc1cc(Cc2cnc(N)nc2N)cc(C)c1OC`: the MIC ratio in test [1] is 30; in test [2], 30; in test [3] it was 30; in test [4], 3; in test [17], 30; in test [5], 3. The same compound yielded an MIC in [9] of 140 µM (≈ 38.1 µg/mL).

Take `CCc1cc(Cc2cnc(N)nc2N)cc(C)c1O`: the MIC ratio in [1] is 3; in [2], 3; in test [3], 3; in [17], 3; in [5], 1.

Regarding `COc1c(C)cc(Cc2cnc(N)nc2N)cc1C(C)(C)C`, the MIC ratio in test [1] was 100; in test [2] it was 300; in [3], over 100; in test [4], over 30; in test [17], 300; in test [5], 10. Further, the MIC in test [18] stood at 10 µg/mL (≈ 33.3 µM).
